According to ChEMBL document CHEMBL4011620, “Design and Discovery of N-(2-Methyl-5'-morpholino-6'-((tetrahydro-2H-pyran-4-yl)oxy)-[3,3'-bipyridin]-5-yl)-3-(trifluoromethyl)benzamide (RAF709): A Potent, Selective, and Efficacious RAF Inhibitor Targeting RAS Mutant Cancers” (J Med Chem, 2017):
In brackets after ≈: the same amount, converted by molar mass. Activity calls are given as the source filed them. No cut-off for these calls is given here.

Columns and labels:
[1] = Oral bioavailability in rat at 10 mg/kg; format: ADME, organism-based; details: in vivo
[2] = Clearance in dog at 0.3 mg/kg, iv or 1 mg/kg, po; format: ADME, organism-based, Canis lupus familiaris; details: in vivo
Plasma [3] = experiment: Plasma concentration in po dosed mouse xenografted with human Calu6 cells administered as single dose measured after 1 to 24 hrs post dose by LC-MS analysis; format: ADME, organism-based; details: in vivo
Mus musculus [4] = experiment: Toxicity in nude mouse xenografted with human Calu6 cells assessed as mortality at 10 to 200 mg/kg/day, po administered for 15 days starting on day 12 post tumor implantation; format: organism-based; details: in vivo, 360 h
[5] = Apparent permeability across basolateral to apical side in human Caco2 cells at pH 7.4 by LC/MS/MS analysis; details: Caco-2, pH 7.4
[6] = molecular target: T1, Serine/threonine-protein kinase B-raf (Homo sapiens, UniProt P15056); experiment: Inhibition of full-length BRAF (unknown origin)
[7] = Clearance in mouse at 1 mg/kg, iv or 3 mg/kg, po; format: ADME, organism-based; details: in vivo
Mus musculus [8] = experiment: Toxicity in nude mouse xenografted with human PC3 cells assessed as mortality at 200 mg/kg/day, po administered from day 12 until day 25 post tumor implantation; format: organism-based; details: in vivo
[9] = Cmax in rat at 10 mg/kg, po; format: ADME, organism-based; parameters: dose 10 mg/kg, route oral; details: in vivo
Mus musculus [10] = experiment: In vivo inhibition of ERK1/2 phosphorylation at Thr202/Tyr204 and Thr185/Tyr187 in mouse xenografted with human Calu6 cells at 200 mg/kg, po administered as single dose measured up to 24 hrs post dose; format: functional; details: Calu-6, po
Calu-6 [11] = experiment: Antitumor activity against human Calu6 cells xenografted in nude mouse assessed as effect on tumor volume at 30 mg/kg/day, po administered for 15 days starting on day 12 post tumor implantation measured on day 27 relative to control; format: functional
Plasma [12] = experiment: Plasma concentration in mouse xenografted with human Calu6 cells at 10 mg/kg, po administered as single dose measured at 24 hrs post dose by LC-MS analysis; format: ADME, organism-based; details: in vivo, BLD = below limit of detection
[13] = Solubility of compound at pH 6.8 by shake-flask assay; details: buffer
[14] = Oral bioavailability in mouse at 3 mg/kg; format: ADME, organism-based; details: in vivo
Mus musculus [15] = experiment: In vivo inhibition of ERK phosphorylation at Thr202/Tyr204 and Thr185/Tyr187 in mouse xenografted with human Calu6 cells at 10 mg/kg, po administered as single dose measured at 24 hrs post dose; format: functional, organism-based
[16] = AUC (infinity) in rat at 10 mg/kg, po; format: ADME, organism-based; parameters: dose 10 mg/kg, route oral, time infinity; details: in vivo
[17] = tested on: Serine/threonine-protein kinase B-raf (Homo sapiens), P15056 [V600E]; experiment: Binding affinity to human BRAF V600E mutant (429 to 741 residues) expressed in mammalian expression system at 1 uM by kinome scan assay relative to control
[18] = molecular target: Platelet-derived growth factor receptor alpha (Homo sapiens) (UniProt P16234); experiment: Binding affinity to human PDGFRalpha (330 to 640 residues) expressed in mammalian expression system at 1 uM by kinome scan assay relative to control
[19] = Volume of distribution at steady state in rat at 3 mg/kg, iv or 10 mg/kg, po; format: ADME, organism-based; details: in vivo, read-out: Vdss
[20] = tested on: RAF proto-oncogene serine/threonine-protein kinase (Homo sapiens), P04049 [Y340E,Y341E]
[21] = Volume of distribution at steady state in mouse at 1 mg/kg, iv or 3 mg/kg, po; format: ADME, organism-based; details: in vivo, read-out: Vdss
[22] = Oral bioavailability in dog at 1 mg/kg; format: ADME, organism-based, Canis lupus familiaris; details: in vivo
[23] = Metabolic stability in human plasma after 3 hrs; format: ADME, cell-free; details: read-out: Stability
[24] = molecular target: T1, Serine/threonine-protein kinase B-raf; experiment: Binding affinity to human BRAF (429 to 741 residues) expressed in mammalian expression system at 1 uM by kinome scan assay relative to control
Mus musculus [25] = experiment: Toxicity in nude mouse xenografted with human Calu6 cells assessed as body weight loss at 10 to 200 mg/kg/day, po administered for 15 days starting on day 12 post tumor implantation measured twice per week of compound dosing; format: organism-based; details: in vivo, 360 h
[26] = Protein binding in dog plasma; format: ADME, cell-free, Canis lupus familiaris; details: read-out: PPB (converted)
Mus musculus [27] = experiment: In vivo inhibition of ERK phosphorylation at Thr202/Tyr204 and Thr185/Tyr187 in po dosed mouse xenografted with human Calu6 cells administered as single dose measured after 1 to 24 hrs post dose; format: functional, organism-based
[28] = Metabolic stability in mouse plasma after 3 hrs; format: ADME, cell-free; details: read-out: Stability
Calu-6 [29] = experiment: Antitumor activity against human Calu6 cells xenografted in nude mouse assessed as effect on tumor volume at 10 mg/kg/day, po administered for 15 days starting on day 12 post tumor implantation measured on day 27 relative to control; format: functional
[30] = Protein binding in mouse plasma; format: ADME, cell-free; details: read-out: PPB (converted)
[31] = molecular target: T2, Discoidin domain-containing receptor 2 (Homo sapiens) (UniProt Q16832); experiment: Binding affinity to human DDR2 (555 to 855 residues) expressed in mammalian expression system at 1 uM by kinome scan assay relative to control
T2 sequence (whole entry): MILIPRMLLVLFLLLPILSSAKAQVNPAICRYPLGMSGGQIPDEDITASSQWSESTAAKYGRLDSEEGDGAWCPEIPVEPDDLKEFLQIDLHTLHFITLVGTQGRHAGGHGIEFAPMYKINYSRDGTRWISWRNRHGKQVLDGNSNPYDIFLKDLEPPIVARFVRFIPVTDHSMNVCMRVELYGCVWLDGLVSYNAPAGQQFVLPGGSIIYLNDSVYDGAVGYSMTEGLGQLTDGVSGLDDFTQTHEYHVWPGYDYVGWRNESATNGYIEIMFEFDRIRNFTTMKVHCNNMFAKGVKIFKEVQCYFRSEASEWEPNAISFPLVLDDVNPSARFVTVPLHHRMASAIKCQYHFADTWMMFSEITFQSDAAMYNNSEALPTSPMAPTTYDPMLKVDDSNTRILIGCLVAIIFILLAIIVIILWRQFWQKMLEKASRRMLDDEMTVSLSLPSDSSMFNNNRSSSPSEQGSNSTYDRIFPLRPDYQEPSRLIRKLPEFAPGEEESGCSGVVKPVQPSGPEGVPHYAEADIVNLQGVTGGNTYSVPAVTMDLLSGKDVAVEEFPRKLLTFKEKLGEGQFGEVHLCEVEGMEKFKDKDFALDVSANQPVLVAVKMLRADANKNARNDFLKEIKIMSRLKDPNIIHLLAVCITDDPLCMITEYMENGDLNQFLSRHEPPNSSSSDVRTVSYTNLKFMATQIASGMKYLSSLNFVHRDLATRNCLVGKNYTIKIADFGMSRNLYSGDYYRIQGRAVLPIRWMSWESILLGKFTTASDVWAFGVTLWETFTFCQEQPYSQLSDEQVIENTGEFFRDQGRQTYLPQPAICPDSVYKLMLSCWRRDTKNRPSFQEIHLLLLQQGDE

[32] = AUC (infinity) in dog at 1 mg/kg, po; format: ADME, organism-based, Canis lupus familiaris; parameters: dose 1 mg/kg, time infinity, route oral; details: in vivo
[33] = Protein binding in rat plasma; format: ADME, cell-free; details: read-out: PPB (converted)

T1 sequence (P15056 whole entry): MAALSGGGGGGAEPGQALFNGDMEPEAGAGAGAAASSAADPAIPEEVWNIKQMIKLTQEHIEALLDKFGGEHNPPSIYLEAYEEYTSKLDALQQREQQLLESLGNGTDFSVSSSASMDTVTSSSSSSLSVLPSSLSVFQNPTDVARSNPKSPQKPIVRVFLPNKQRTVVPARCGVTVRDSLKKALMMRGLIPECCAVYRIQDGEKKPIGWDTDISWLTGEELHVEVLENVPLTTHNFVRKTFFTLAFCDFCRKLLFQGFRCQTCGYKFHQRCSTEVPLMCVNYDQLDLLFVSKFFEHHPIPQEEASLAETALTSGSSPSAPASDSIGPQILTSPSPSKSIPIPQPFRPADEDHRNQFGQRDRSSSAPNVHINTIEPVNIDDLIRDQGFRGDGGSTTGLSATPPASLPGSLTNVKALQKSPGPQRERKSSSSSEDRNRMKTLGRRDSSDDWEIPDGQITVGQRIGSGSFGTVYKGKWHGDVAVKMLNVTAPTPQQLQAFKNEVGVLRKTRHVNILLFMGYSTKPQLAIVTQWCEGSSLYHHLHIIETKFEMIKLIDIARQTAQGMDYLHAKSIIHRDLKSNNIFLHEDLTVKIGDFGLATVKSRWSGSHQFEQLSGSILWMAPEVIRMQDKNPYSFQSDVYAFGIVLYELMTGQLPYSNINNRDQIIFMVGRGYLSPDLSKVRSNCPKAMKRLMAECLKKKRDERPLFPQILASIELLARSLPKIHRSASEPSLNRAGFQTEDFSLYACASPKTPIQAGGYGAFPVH
Chain of Platelet-derived growth factor receptor alpha (Homo sapiens) (P16234 whole entry, the tested form may be a part): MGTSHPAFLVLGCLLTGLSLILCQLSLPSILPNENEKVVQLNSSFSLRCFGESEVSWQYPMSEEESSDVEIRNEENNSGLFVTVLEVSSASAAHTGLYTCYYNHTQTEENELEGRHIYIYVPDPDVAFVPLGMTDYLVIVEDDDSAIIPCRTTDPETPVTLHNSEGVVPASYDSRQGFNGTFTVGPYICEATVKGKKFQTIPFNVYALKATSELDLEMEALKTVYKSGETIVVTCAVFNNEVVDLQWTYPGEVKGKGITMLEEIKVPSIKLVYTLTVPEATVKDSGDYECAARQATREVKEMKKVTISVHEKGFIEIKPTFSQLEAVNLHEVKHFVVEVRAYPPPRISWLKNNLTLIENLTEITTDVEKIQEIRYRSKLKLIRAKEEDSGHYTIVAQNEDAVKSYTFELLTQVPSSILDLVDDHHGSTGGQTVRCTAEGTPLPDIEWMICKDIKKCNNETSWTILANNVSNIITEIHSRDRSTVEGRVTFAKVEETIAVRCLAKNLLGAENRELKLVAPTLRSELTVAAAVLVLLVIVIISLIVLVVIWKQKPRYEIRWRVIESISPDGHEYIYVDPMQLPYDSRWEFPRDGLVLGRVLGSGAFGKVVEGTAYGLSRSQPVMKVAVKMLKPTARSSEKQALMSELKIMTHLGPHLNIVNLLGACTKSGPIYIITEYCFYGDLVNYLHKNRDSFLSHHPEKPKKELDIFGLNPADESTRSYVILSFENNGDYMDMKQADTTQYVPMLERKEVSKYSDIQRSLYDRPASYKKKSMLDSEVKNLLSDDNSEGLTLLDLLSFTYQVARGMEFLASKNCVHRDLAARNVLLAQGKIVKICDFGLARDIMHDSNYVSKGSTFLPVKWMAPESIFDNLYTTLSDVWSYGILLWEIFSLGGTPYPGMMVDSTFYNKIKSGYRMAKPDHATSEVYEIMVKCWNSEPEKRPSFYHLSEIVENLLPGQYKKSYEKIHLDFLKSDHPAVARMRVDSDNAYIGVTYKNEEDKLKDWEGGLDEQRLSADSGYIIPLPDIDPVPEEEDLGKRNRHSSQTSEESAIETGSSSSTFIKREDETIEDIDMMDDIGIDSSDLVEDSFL
Chain of Serine/threonine-protein kinase B-raf (Homo sapiens), P15056 [V600E] (P15056 whole entry V600E, the tested form may be a part): as the sequence (P15056 whole entry) above, with V600E counted along it

## Cc1ncc(NC(=O)c2cccc(C(F)(F)F)c2)cc1-c1cnc(OC2CCOCC2)c(N2CCOCC2)c1
[1]
  bioavailability: 24%
[2]
  clearance: 14 mL/min/kg
Plasma [3]
  Drug uptake: Dose-dependent effect
Mus musculus [4]
  Activity: Non-Toxic
[5]
  Papp B→A: 13 ×10⁻⁶ cm/s
[6]
  IC50: 0.4 nM
[7]
  clearance: 35 mL/min/kg
Mus musculus [8]
  Activity: Non-Toxic
[9]
  Cmax: 800 nM
Mus musculus [10]
  inhibition in vivo at 200 mg/kg: ≥ 70%
Calu-6 [11]
  T/C: 46%
Plasma [12]
  Cp: Bld
[13]
  solubility thermodynamic: 200 µM (≈ 109 µg/mL)
[14]
  bioavailability: 68%
Mus musculus [15]
  inhibition: inactive
[16]
  AUC(0-inf): 1.5 µM·h
[17]
  Activity: > 99%
[18]
  Activity: 96%
[19]
  Vd: 3.5 L/kg
[20]
  T1/2: > 6.5 h
[21]
  Vd: 1.2 L/kg
[22]
  bioavailability: 48%
[23]
  remaining at 3 h: 101%
[24]
  Activity: > 99%
Mus musculus [25]
  Activity: Non-Toxic
[26]
  fraction unbound: 0.02
Mus musculus [27]
  inhibition: Dose-dependent effect
[28]
  remaining at 3 h: 82%
Calu-6 [29]
  T/C: 92%
[30]
  fraction unbound: 0.02
[31]
  Activity: 86%
[32]
  AUC(0-inf): 1 µM·h
[33]
  fraction unbound: 0.02
